Laboratory results from patent publication US11377467B2, “Crystalline form of gemcitabine” (NuCana plc, priority 2015, dated 2022).

What was measured:
[1] = tested on: advanced solid malignancies; assay: ProGem1 phase I study: clinical efficacy; type: in vivo, human; conditions: patients with advanced progressive cancers who have exhausted all standard therapeutic options, many resistant or refractory to prior nucleoside analogue therapy
From the text: (§1) ProGem1 was a first-time-in-human (FTIH), phase I, open label, two stage study to investigate the safety, tolerability, clinical efficacy, pharmacokinetics (PK) and pharmacodynamics (PD) of NUC-1031 given in two parallel dosing schedules in subjects with advanced solid malignancies (EudraCT Number: 2011-005232-26). Subjects had the following tumour types at study entry: colorectal cancer (7 subjects), unknown primary (3), ovarian cancer (12), breast cancer (4), pancreatic cancer (9), cholangiocarcinoma (7), endometrial cancer (3), cervical cancer (2), lung cancer (7), mesothelioma (3), oesophageal cancer (3), cancer of the fallopian tube (1), trophoblast (1), renal cancer (1), gastric cancer (1), anal cancer (1), cancer of the thymus (1) and osteosarcoma (1).

[2] = ProGem1 phase I study: pharmacokinetics (intracellular dFdCTP, dFdU); type: in vivo, human; conditions: relative to levels normally associated with gemcitabine
From the text: as §1

[3] = stability stress testing of crystalline form; type: physicochemical; conditions: ambient light, 40° C. and 75% relative humidity, 7 days
From the text: Form VIII appeared physically stable upon stability stress testing.

| SMILES | anti-tumour activity [1] | levels of the potentially toxic metabolite 2′,2′-difluoro-2′-deoxyuridine (dFdU) released, relative to gemcitabine [2] | change in crystalline form upon storage [3] | decrease in purity upon storage [3] |
| --- | --- | --- | --- | --- |
| C[C@H](NP(=O)(OC[C@H]1O[C@@H](n2ccc(N)nc2=O)C(F)(F)C1O)Oc1ccccc1)C(=O)OCc1ccccc1 (stereo partly shown) [NUC-1031] | anti-tumour activity | less than half |  |  |
| C[C@H](N[P@](=O)(OC[C@H]1O[C@@H](n2ccc(N)nc2=O)C(F)(F)C1O)Oc1ccccc1)C(=O)OCc1ccccc1 (stereo partly shown) [Form VIII] |  |  | No change in crystalline form | no decrease in purity |
